Measured values reported in PubChem BioAssay AID624285 (Broad Institute, 2012).
Where “and” joins values, the source holds several entries; their conditions need not be identical. Equal entries are not always repeated. Calls of active or inactive are those of the source.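 Rule for the calls: active = signal-decreasing dose-response curve whose fitted half-maximal concentration is at or below twice the highest valid tested dose; inconclusive = flat fit at 30 to 70% signal loss, or poor fit; inactive = the rest.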

Test: cell viability loss after compound exposure – 24 h, luminescence, cherry-picked samples, cytotoxicity control for PDI inhibitor project, dose response (AID 624285)
Details: NIH3T3/HeLa viability, CellTiter-Glo ATP luminescence, 24 h; at 35 µM (top of the series)

Compound | activity change, negative = cytotoxicity
CCOC(=O)c1c(CN2CCOCC2)n(-c2ccccc2)c2cc(Br)c(OC)cc12 | -12.1% (inactive)
C/C=C(\C)C(=O)NCCN1C2=NC[C@H](Cc3ccc(O)cc3)N2C[C@H]1Cc1ccc(O)cc1 | -2.15% (inactive)
C[C@H](CO)N1C[C@H](C)[C@H](CN(C)S(=O)(=O)c2ccc(F)cc2)Oc2ccc(NC(=O)Cc3cn(C)c4ccccc34)cc2C1=O | -6.42% (inactive)
NC(=O)c1nsc(C(=O)N(CC(=O)NCc2ccc(F)cc2)Cc2ccco2)c1N | -24.6% (inactive)
Clc1cccc(OCCCN2CCCC2)c1Cl | -17% (inactive)
COc1cc2c(cc1OC)C1C(C(=O)Nc3ccccc3N3CCN(C)CC3)c3ccccc3C(=O)N1CC2 (stereo unspecified) | -11.8% (inactive)
CCOC(=O)c1cc(S(=O)(=O)N2CCN(C(=O)OCC)CC2)cn1C | -3.84% (inactive)
Cc1cc2c3c(c1)C1(C(=O)N3C(C)(C)CC2C)C(C#N)=C(N)Oc2n[nH]c(C)c21 (stereo unspecified) | -11.6% (inactive)
C[C@H](CO)N1C[C@H](C)[C@@H](CN(C)S(=O)(=O)c2ccc(F)cc2)Oc2ccc(NC(=O)Cc3ccccc3)cc2C1=O | -14.6% (inactive)
C=CCNc1ncnc2c1ncn2[C@H]1CN(Cc2cccc3ccccc23)C[C@@H](CO)O1 | -8.26% (inactive)
Cc1noc(C)c1S(=O)(=O)Nc1ccc2c(c1)CC(=O)N([C@H](C)CO)C[C@H](C)[C@H](CN(C)S(C)(=O)=O)O2 | 1.83% (inactive)
O=C1CN(c2nc3ccccc3n3cnnc23)CC(=O)N1CCc1ccccc1 | -8.64% (inactive)
CCN(CC(=O)Nc1ccc2c(c1)OCCO2)C(=O)CC1CCCC1 | -11.8% (inactive)
CC(OC(=O)c1cccc(S(=O)(=O)N(C)C)c1)C(=O)NCC(=O)Nc1ccc(F)c(F)c1F (stereo unspecified) | -4.24% (inactive)
Cc1noc(C)c1S(=O)(=O)Nc1ccc2c(c1)CC(=O)N([C@@H](C)CO)C[C@@H](C)[C@H](CN(C)S(=O)(=O)c1ccc(F)cc1)O2 | -10.5% (inactive)
CC[C@]12c3[nH]c4cc(-c5ccco5)ccc4c3CCN1C(=O)[C@@H](CC(=O)NCCCOC)C[C@@H]2C(=O)N1CCN(C(=O)C2CC2)CC1 | -8.63% (inactive)
Cc1noc(C)c1S(=O)(=O)Nc1ccc2c(c1)CC(=O)N([C@H](C)CO)C[C@H](C)[C@H](CN(C)S(=O)(=O)c1ccc(F)cc1)O2 | 0.678% (inactive) and -3.98% (inactive)
Cc1noc(C)c1S(=O)(=O)Nc1ccc2c(c1)CC(=O)N([C@@H](C)CO)C[C@H](C)[C@@H](CN(C)S(=O)(=O)c1ccc(F)cc1)O2 | 2.55% (inactive)
CN(C)C(=O)CSc1nnc([C@H](Cc2c[nH]c3ccccc23)NC(=O)OC(C)(C)C)o1 | -2.37% (inactive)
CCCCNC(=O)N1CCN(C(=O)C2CCCO2)CC1 (stereo unspecified) | -4.25% (inactive)
CC1CC(C)CN(C(=O)COC(=O)c2ccc[nH]c2=O)C1 (stereo unspecified) | -4.68% (inactive)
COc1ccc(N2CCN(CC(=O)c3ccc(O)c(C)c3O)CC2)cc1 | -3.44% (inactive)
CCOc1ccc2nc(NS(=O)(=O)Cc3ccccc3)sc2c1 | -6.13% (inactive)
C=CCn1c(SCC(=O)Nc2ccc(N(C)C)cc2)nnc1-c1cccc(C)c1 | -10.1% (inactive)
CCCCNC(=O)Nc1ccon1 | -6.29% (inactive)
COc1ccc(CCNC(=O)c2cc(S(=O)(=O)N(C)C)ccc2N2CCCC2)cc1 | -14.6% (inactive)

Compound | activity change, negative = cytotoxicity
O=C(Nc1cccc(S(=O)(=O)Nc2ccc(SC(F)F)cc2)c1)C1CCC1 | -13.1% (inactive)
O=C(CN1CCN(c2ccc(O)cc2)CC1)Nc1cc(S(=O)(=O)N2CCOCC2)ccc1Cl | -13.3% (inactive)
CNc1ncnc2c1ncn2[C@H]1CN(Cc2cccc3ccccc23)C[C@@H](CO)O1 | -19.8% (inactive)
Cc1ccc(N2CC(C(=O)N3CCCCCC3)CC2=O)cc1 (stereo unspecified) | -7.03% (inactive)
O=C(O)c1ccccc1Cc1ccc(F)c2ccccc12 | -10.5% (inactive)
CCCn1nnnc1NC(=O)c1cccs1 | -5.77% (inactive)
O=C(CCN1C(=O)C2C3C=CC(C4CC34)C2C1=O)Oc1ccccc1 (stereo unspecified) | -3.44% (inactive)
COc1ccccc1N1CCN(C(=O)C(=O)N/N=C/c2cccc(O)c2)CC1 | -8.29% (inactive)
S=C(NCCc1ccccc1)Nc1ccccn1 | -3.47% (inactive)
CCOC(=O)C1(Cc2ccc(O)cc2)NC(c2ccccc2F)C2C(=O)N(C)C(=O)C21 (stereo unspecified) | -15.5% (inactive)
O=C(NC(Cc1ccc(O)cc1)C(=O)N=Nc1c(O)[nH]c2ccccc12)c1ccccc1 (stereo unspecified) | -6.54% (inactive)
COc1ccc(C2c3ccc(O)cc3Oc3ncn(CCCO)c(=N)c32)cc1 (stereo unspecified) | -8.08% (inactive)
COC(=O)C(Cc1ccc(O)cc1)N1Cc2ccccc2C1=O (stereo unspecified) | -9.13% (inactive)
CC[C@]12c3[nH]c4cc(-c5ccco5)ccc4c3CCN1C(=O)[C@@H](CC(=O)NCc1ccc(OC)c(OC)c1)C[C@@H]2C(=O)N1CCN(C(=O)C2CC2)CC1 | -17.7% (inactive)
O=C(OCc1ccc(-c2ccccc2)cc1)c1cccc(O)c1 | -8.38% (inactive)
COc1cc(C(C)=O)ccc1OCC(=O)NCCCn1nc(C)cc1C | -1.82% (inactive)
COc1cccc(/C=C2\CCCCC2=O)c1 | -7.65% (inactive)
Cc1cccc(C)c1NC(=O)CN1CCNCC1 | -9.95% (inactive)
CCOC(=O)c1c(CN(CC)CC)n(C)c2cc(Br)c(O)cc12 | -10.4% (inactive)
COc1cc(C(=O)N2CCN(C/C=C/c3ccccc3)CC2)cc(OC)c1OC | -12% (inactive)
CCC(=O)N1CCc2cc(S(=O)(=O)CCC(=O)NCc3ccco3)ccc21 | -2.4% (inactive)
COc1cc(C2C(C(C)=O)=C(O)C(=O)N2CCc2c[nH]c3ccccc23)ccc1O (stereo unspecified) | -5.75% (inactive)
O=C(NN1CC(C(=O)OCc2ccccc2F)CC1=O)c1ccccc1 (stereo unspecified) | -2.89% (inactive)
COc1ccc(N(Cc2cc3cc(OC)ccc3[nH]c2=O)C(=O)C2CCCO2)cc1 (stereo unspecified) | -10.5% (inactive)
CCn1c(SCC(=O)NC2CC2)nnc1-c1ccccc1 | -6.27% (inactive)
COc1ccccc1NS(=O)(=O)c1cccc(C(=O)NCC2(N(C)C)CCCCC2)c1 | -8.59% (inactive)

Compound | activity change, negative = cytotoxicity
C[C@@H]1CN([C@H](C)CO)C(=O)c2cc(NC(=O)Cc3cn(C)c4ccccc34)ccc2O[C@H]1CN(C)S(=O)(=O)c1ccc(F)cc1 | -11.7% (inactive) and -2.14% (inactive)
Cc1ccc(-n2ncc3c(=O)[nH]c(SCC(=O)N4CCCc5ccccc54)nc32)cc1 | -1.87% (inactive)
Cc1cc(C)c2c(=O)n3c(nc2c1)C(Cc1ccc(O)cc1)NC(=O)c1cccnc1-3 (stereo unspecified) | -10.3% (inactive)
CCOC(=O)c1c(CN2CCN(CCO)CC2)n(C)c2cc(Br)c(OC)cc12 | -17.2% (inactive)
Cc1ccc2nsnc2c1NC(=O)c1cccnc1Cl | -3.17% (inactive)
CN(C)S(=O)(=O)c1ccc(Cl)c(NC(=O)CSc2nnnn2-c2ccc(O)cc2)c1 | -11.7% (inactive)
C[C@@H]1CN([C@@H](C)CO)C(=O)c2cccc(NS(C)(=O)=O)c2O[C@H]1CN(C)Cc1ccc(Oc2ccccc2)cc1 | -11.5% (inactive) and -6.47% (inactive)
Cc1ccc(-c2cc(C(=O)NNC(=O)c3csc(N4CCOCC4)n3)c3ccccc3n2)cc1 | -13.2% (inactive)
O=C(CNC(=O)c1n[nH]c2ccccc12)Nc1cc(Cl)ccc1Cl | -8.33% (inactive)
O=C(O)CCCCCn1c(SCC(=O)c2ccc(O)c(O)c2)nc2ccsc2c1=O | -10.6% (inactive)
CCOc1ccc2[nH]c(=O)c(CN(CCO)C(=O)CC)cc2c1 | -9.33% (inactive)
Cc1noc(C)c1S(=O)(=O)Nc1ccc2c(c1)CC(=O)N([C@@H](C)CO)C[C@H](C)[C@H](CN(C)S(=O)(=O)c1ccc(F)cc1)O2 | 7.36% (inactive)
O=C(Nc1oc2ccccc2c(=O)c1-c1ccc(Cl)cc1)c1ccco1 | -2.88% (inactive)
Cc1noc(C)c1C(=O)OCC(=O)NCCc1ccc(Cl)cc1 | -14.2% (inactive)
CC(O)(c1cccnc1)c1nc(-c2cc(F)cc(F)c2)cs1 (stereo unspecified) | -6.67% (inactive)
O=C1/C(=C\c2ccc(O)cc2)CCC1CNc1ccc(Cl)cc1 (stereo unspecified) | -7.39% (inactive)
COc1ccc2c(CC(=O)OCC(=O)N(C)c3c(N)n(Cc4ccccc4)c(=O)[nH]c3=O)coc2c1 | -8.77% (inactive)
COc1ccc(C(=O)Nc2ccccc2C(=O)NCc2ccco2)cc1 | -14.7% (inactive)
O=c1c(O[C@@H]2O[C@H](CO)[C@@H](O)[C@H](O)[C@H]2O)c(-c2ccc(O)cc2)oc2cc(O)cc(O)c12 | -2.51% (inactive)
CN1CCN(C(=O)CSc2nnc(COc3ccc(Cl)cc3)o2)CC1 | -3.96% (inactive)
CN(C)C(=O)CSc1nnc([C@H](Cc2ccccc2)NC(=O)OC(C)(C)C)o1 | -9.45% (inactive)
Cc1cccc(NC(=S)NCC23C=CC(O2)C2C(=O)N(c4ccc(Cl)cc4)C(=O)C23)c1 (stereo unspecified) | -20.9% (inactive)
CC(C)N1CCCC(C)(C(=O)Nc2nc3ccccc3n2C)C1 (stereo unspecified) | -8.91% (inactive)
COc1ccc(S(=O)(=O)NCC(c2ccc(F)cc2)N2CCOCC2)cc1Br (stereo unspecified) | -10.1% (inactive)
